# Source: patent US20060166869A1, “Novel use of lipopeptide preparations” (priority 2002, published 2006)
# Where two headings read alike, the source gives them in different places.
# How the values were obtained:
# SIV tilted peptide = molecular target: T1, SIV tilted peptide (Simian immunodeficiency virus, UniProt P05885); type: biochemical; settings: for concentration at which inhibition is complete: Tris NaCl buffer pH 7.4, SIV tilted peptide 0.966 μM (FIG. 6); for inhibition of LUV fusion: Tris NaCl buffer pH 7.4, SIV tilted peptide 0.966 μM; for concentration at which complete (or nearly complete) inhibition of fusion is reached: Tris NaCl buffer pH 8.0, SIV tilted peptide 0.966 μM (FIG. 2)
# T1 construct: SIV; 12; 528-539; GVFVLGFLGFLA; purchased SYNT:EM (Nimes, France)
# [1] = molecular target: T2, Bordetella pertussis tilted peptide (Bordetella pertussis, UniProt P12255); type: biochemical; settings: charged LUV, Tris NaCl buffer pH 7.4, Bordetella pertussis tilted peptide 2.42 μM (FIG. 8)
# T2 construct: purchased EPYTOP (Nimes, France)
# From the text: A number of different systems have been developed to assay peptide membrane fusion activity. Large unilamellar vesicles (LUV) are appropriate model for biological membrane fusion. Their curvature and their stability mimic suitably the cell membrane. Several different techniques for detecting and quantifying vesicle fusion are in common use. These include fluorescence assays that monitor fusion-induced lipid mixing between the two lipid bilayers of the membranes by observing the increase of fluorescence of a probe included in a part of vesicles in mixture. The dilution of the probe by fusion of the two bilayers from the two categories of vesicles causes a decrease of the self-quenching phenomenon leading to an increase of the fluorescence intensity.
# Two sets of LUV are prepared: LUV with fluorescent probe (labelled LUV) and free probe LUV (unlabelled LUV). The probe used is the octadecyl rhodamine chloride (R18) (Molecular probes, Eugene, Oreg.).
# The first step is the preparation of large multilamellar vesicles. For this, a mixing of different lipids is operated in a round bottomed Büchi flask. […]
# Vesicles fusion is determined by measuring the fluorescence intensity change resulting from the fluorescence of the R18 probe. Fluorescence is monitored using fluorimeter LS-50B Perkin-Elmer (Norwalk, Conn. USA). […]
# [2] = uncharged LUV, Tris buffer without NaCl pH 8.0, SIV tilted peptide 0.966 μM (FIG. 5)
Substance,concentration at which inhibition is complete (SIV tilted peptide; charged LUV),concentration at which complete (or nearly complete) inhibition of fusion is reached (SIV tilted peptide; charged LUV),concentration at which the fusogenic effect is inhibited completely [1],other results
cyclic fengycin A with a β-hydroxyled fatty acid chain containing 16 carbon atoms [FAC16],~2.4 µM,~1 µM,~1.61 µM,"inhibition of LUV fusion (SIV tilted peptide; charged LUV, agent at 0.8 μM (FIG. 6)): 90%"
cyclic surfactin with a linear β-hydroxyled fatty acid chain containing 14 carbon atoms [SC14],,~2.4 µM,,
cyclic surfactin with an iso-branched β-hydroxyled fatty acid chain containing 13 carbon atoms [SC13],,> 4.8 µM,,
cyclic surfactin with an iso-branched β-hydroxyled fatty acid chain containing 15 carbon atoms [SC15],~2.4 µM,~2.4 µM,~4.8 µM,"concentration at which fusion is completely inhibited (SIV tilted peptide; uncharged LUV, Tris NaCl buffer pH 8.0, SIV tilted peptide 0.966 μM (FIG. 4)): ~3.2 µM; antifusogenic activity in absence of NaCl compared with Tris NaCl buffer (SIV tilted peptide; [2]): slightly improved; concentration at which complete inhibition is reached (SIV tilted peptide; [2]): ~2 µM"
"linear surfactin, with an linear β-hydroxylated fatty acid chain containing 14 carbon atoms and with a linear peptide part [LSC14]",,,,"inhibition of LUV fusion (SIV tilted peptide; charged LUV, agent at concentration near 2 μM (FIG. 6)): 60%"
lysophosphatidylcholine [reference compound],,,,"effect on the fusion percentage (SIV tilted peptide; charged LUV, Tris NaCl buffer pH 8.0, agent at concentrations below 1 μM (FIG. 2)): no effect at all; antifusogenic activity (SIV tilted peptide; charged LUV, Tris NaCl buffer pH 8.0, agent at concentrations between 1 and 2 μM (FIG. 2)): < 50%"
